Measured values taken from US6479531B1, “Gastrin and cholecystokinin receptor ligands” (James Black Foundation Limited, priority 1998, dated 2002).

These compounds were tested against T1, gastrin receptor (Rattus norvegicus, UniProt P30553) (assay: gastrin antagonist activity in immature rat stomach assay (pentagastrin dose-response, acid secretion)). Settings: isolated immature rat stomach, cumulative pentagastrin dose-response curves.
T1 construct: The stomach was excised and flushed with ca. 1 ml of unbuffered physiological saline solution; from tissue; host or cells: isolated whole stomach of immature rats (ca. 21 days old)
T1 sequence (P30553 1-452): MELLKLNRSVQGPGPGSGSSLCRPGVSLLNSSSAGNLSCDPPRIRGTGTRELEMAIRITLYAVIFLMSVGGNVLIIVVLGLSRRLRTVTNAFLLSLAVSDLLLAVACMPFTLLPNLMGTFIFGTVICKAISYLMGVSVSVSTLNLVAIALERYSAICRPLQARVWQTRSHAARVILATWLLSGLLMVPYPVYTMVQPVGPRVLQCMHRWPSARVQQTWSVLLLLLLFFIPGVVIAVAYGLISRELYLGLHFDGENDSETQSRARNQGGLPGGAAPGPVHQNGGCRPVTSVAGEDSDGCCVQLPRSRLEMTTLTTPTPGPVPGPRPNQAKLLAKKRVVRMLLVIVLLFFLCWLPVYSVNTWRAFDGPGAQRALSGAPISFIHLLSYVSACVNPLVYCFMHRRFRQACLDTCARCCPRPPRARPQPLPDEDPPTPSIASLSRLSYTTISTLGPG
Procedure: The compounds of the examples were also tested for gastrin antagonist activity in an immature rat stomach assay. The procedure was as follows:
The oesophagus of immature rats (33-50 g, ca. 21 days old) was ligated at the level of the cardiac sphincter and the duodenal sphincter was cannulated. The stomach was excised and flushed with ca. 1 ml of unbuffered physiological saline solution. The fundus was punctured and cannulated. A further 4-5 ml of unbuffered solution was flushed through the stomach to ensure the preparation was not leaking. The stomach was lowered into a jacketed organ bath containing 40 ml of buffered solution containing 3×10^−8 M 5-methylfurmethide, maintained at 37° and gassed vigorously with 95% O2/5% CO2. The stomach was continuously perfused at a rate of 1 ml min^−1 with unbuffered solution gassed with 100% O2 with the perfusate passing over an internally referenced pH-electrode fixed 12 cm above the stomach.
After 120 min of stabilisation the drugs were added directly to the serosal solution in the organ bath and after a further 60 min cumulative pentagastrin dose-response curves were started. Changes in acid secretion were monitored and the curves analysed according to Black et al., Br. J. Pharmacol., 1985, 86, 581.
With `O=C(O)Cc1cccc(NC(=O)c2nc(C3CC4CCC3C4)[nH]c2CCC23CC4CC(CC(C4)C2)C3)c1` (racemic) [Example 210, (±)-exo-(3-{[5-(2-Adamantan-1-yl-ethyl)-2-bicyclo[2.2.1]hept-2-yl-1H-imidazole-4-carbonyl]-amino}-phenyl)-acetic Acid] the “Gastrin pKb” value was 6.89. `O=C(O)c1cccc(NC(=O)c2nc([C@@H]3CC4CC[C@@H]3C4)[nH]c2COC23CC4CC(CC(C4)C2)C3)c1` [Example 292, endo-3-{[5-(Adamantan-1-yloxymethyl)-2-((1R,2R)-bicyclo[2.2.1]hept-2-yl)-1H-imidazole-4-carbonyl]-amino}-benzoic Acid] was tested, and the “Gastrin pKb” value was 8.57.

Same assay, conditions: isolated immature rat stomach, cumulative pentagastrin dose-response curves, read-out: Gastrin pKb (converted)
`Cc1ccc(NC(=O)c2nc(C3CCCCC3)[nH]c2CCC23CCC(CC2)CC3)cc1C(=O)O` [Example 176, 5-{[5-(2-Bicyclo[2.2.2]oct-1-yl-ethyl)-2-cyclohexyl-1H-imidazole-4-carbonyl]-amino}-2-methyl-benzoic Acid] was tested, and the Kb was 0.00661 µM. With `Cc1ccccc1-c1nc(CNc2cccc(C(=O)O)c2)c(CCC23CC4CC(CC(C4)C2)C3)n1C` [Example 279, 3-{[5-(2-Adamantan-1-yl-ethyl)-1-methyl-2-o-tolyl-1H-imidazol-4-ylmethyl]-amino}-benzoic Acid] the Kb was 0.145 µM. `N#Cc1ccccc1-c1nc(C(=O)Nc2cccc(C(=O)O)c2)c(COC23CC4CC(CC(C4)C2)C3)[nH]1` [Example 306, 3-{[5-(Adamantan-1-yloxymethyl)-2-(2-cyano-phenyl)-1H-imidazole-4-carbonyl]-amino}-benzoic Acid] showed a Kb of 0.0589 µM. `O=C(O)c1cccc(NC(=O)c2nc(C3CCCCC3)[nH]c2CCC23CCC(CC2)CC3)c1` [Example 175, 3-{[5-(2-Bicyclo[2.2.2]oct-1-yl-ethyl)-2-cyclohexyl-1H-imidazole-4-carbonyl]-amino}-benzoic Acid] gave a Kb of 0.00295 µM. For `O=C(O)c1cccc(NC(=O)c2nc(C3CCC=CCC3)[nH]c2COC23CC4CC(CC(C4)C2)C3)c1` [Example 230, 3-{[5-(Adamantan-1-yloxymethyl)-2-cyclohept-4-enyl-1H-imidazole-4-carbonyl]-amino}-benzoic Acid], the Kb was 0.00617 µM. Compound `O=C(O)CNS(=O)(=O)c1cccc(NC(=O)c2nc(C3CCCCC3)[nH]c2CCC23CC4CC(CC(C4)C2)C3)c1` [Example 262, (3-{[5-(2-Adamantan-1-yl-ethyl)-2-cyclohexyl-1H-imidazole-4-carbonyl]-amino}-benzenesulfonylamino)-acetic Acid] has a Kb of 0.224 µM. With `O=C(O)c1cccc(NC(=O)c2nc(C3CCCCCCC3)[nH]c2COC23CC4CC(CC(C4)C2)C3)c1` [Example 297, 3-{[5-(Adamantan-1-yloxymethyl)-2-cyclooctyl-1H-imidazole-4-carbonyl]-amino}-benzoic Acid] the Kb was 0.000851 µM. Work on `CC(=O)NC(C(=O)O)c1cccc(NC(=O)c2nc(C3CCCCC3)[nH]c2CCC23CC4CC(CC(C4)C2)C3)c1` (racemic) [Example 264, (±)-Acetylamino-(3-{[5-(2-adamantan-1-yl-ethyl)-2-cyclohexyl-1H-imidazole-4-carbonyl]-amino}-phenyl)-acetic Acid] yielded a Kb of 0.871 µM. `Cc1ccc(NC(=O)c2nc(C34CCC(CC3)CC4)[nH]c2COC23CC4CC(CC(C4)C2)C3)cc1C(=O)O` [Example 300, 5-{[5-(Adamantan-1-yloxymethyl)-2-bicyclo[2.2.2]oct-1-yl-1H-imidazole-4-carbonyl]-amino}-2-methyl-benzoic Acid] was tested, and the Kb was 0.00302 µM. `O=C(O)c1cccc(NC(=O)c2nc(C3C4CCCC3CCC4)[nH]c2CCC23CC4CC(CC(C4)C2)C3)c1` (stereo not shown) [Example 208, 3-([5-(2-Adamantan-1-yl-ethyl)-2-bicyclo[3.3.1]non-9-yl-1H-imidazole-4-carbonyl]-amino}-benzoic Acid] showed a Kb of 0.00347 µM. Work on `Cc1cc(C)c(-c2nc(C(=O)Nc3cccc(C(=O)O)c3)c(CCC34CC5CC(CC(C5)C3)C4)[nH]2)c(C)n1` [Example 182, 3-{[5-(2-Adamantan-1-yl-ethyl)-2-(2,4,6-trimethyl-pyridine-3-yl)-1H-imidazole-4-carbonyl]-amino}-benzoic Acid] yielded a Kb of 0.0513 µM. Compound `O=C(O)c1cccc(NC(=O)c2c(COC34CC5CC(CC(C5)C3)C4)nc(C34CCC(CC3)CC4)n2O)c1` [Example 314, 3-{[5-(Adamantan-1-yloxymethyl)-2-bicyclo[2.2.2]oct-1-yl-3-hydroxy-3H-imidazole-4-carbonyl]-amino}-benzoic Acid] has a Kb of 0.00631 µM. In the case of `Cc1ccccc1-c1nc(CCc2cccc(C(=O)O)c2)c(CCC23CC4CC(CC(C4)C2)C3)n1C` [Example 278, 3-{2-[5-(2-Adamantan-1-yl-ethyl)-1-methyl-2-o-tolyl-1H-imidazol-4-yl]-ethyl}-benzoic Acid], the Kb was 0.0646 µM. `O=C(O)c1cc(NC(=O)c2nc(C3CCCCC3)[nH]c2COC23CC4CC(CC(C4)C2)C3)ccc1F` [Example 299, 5-{[5-(Adamantan-1-yloxymethyl)-2-cyclohexyl-1H-imidazole-4-carbonyl]-amino}-2-fluoro-benzoic Acid] showed a Kb of 0.0204 µM. `Cc1cc(C)c(-c2nc(C(=O)Nc3ccc(C)c(C(=O)O)c3)c(CCC34CC5CC(CC(C5)C3)C4)[nH]2)c(C)n1` [Example 183, 5-{[5-(2-Adamantan-1-yl-ethyl)-2-(2,4,6-trimethyl-pyridine-3-yl)-1H-imidazole-4-carbonyl]-amino}-2-methyl-benzoic Acid] gave a Kb of 0.0427 µM. In the case of `Cc1cc(C)c(-c2nc(C(=O)Nc3ccc(F)c(C(=O)O)c3)c(CCC34CC5CC(CC(C5)C3)C4)[nH]2)c(C)c1` [Example 156, 5-{[5-(2-Adamantan-1-yl-ethyl)-2-(2,4,6-trimethyl-phenyl)-1H-imidazole-4-carbonyl]-amino}-2-fluoro-benzoic Acid], the Kb was 0.0631 µM. Compound `Cc1cc(C)c(-c2nc(C(=O)Nc3cccc(C(=O)O)c3)c(COC34CC5CC(CC(C5)C3)C4)[nH]2)c(C)c1` [Example 226, 3-{[5-(Adamantan-1-yloxymethyl)-2-(2,4,6-trimethyl-phenyl)-1H-imidazole-4-carbonyl]-amino}-benzoic Acid] has a Kb of 0.0135 µM. With `COCC1(c2nc(C(=O)Nc3cccc(C(=O)O)c3)c(CCC34CC5CC(CC(C5)C3)C4)[nH]2)CCCCC1` [Example 203, 3-{[5-(2-Adamantan-1-yl-ethyl)-2-(1-methoxymethyl-cyclohexyl)-1H-imidazole-4-carbonyl]-amino}-benzoic Acid] the Kb was 0.0117 µM. `O=C(O)c1cc(NC(=O)c2nc(C34CCC(CC3)CC4)[nH]c2CCC23CC4CC(CC(C4)C2)C3)ccc1F` [Example 213, 5-{[5-(2-Adamantan-1-yl-ethyl)-2-bicyclo[2.2.2]oct-1-yl-1H-imidazole-4-carbonyl]-amino}-2-fluoro-benzoic Acid] gave a Kb of 0.0759 µM. `C[C@H](NC(=O)c1cccc(NC(=O)c2nc(C3CCCCC3)[nH]c2CCC23CC4CC(CC(C4)C2)C3)c1)C(=O)O` [Example 272, (S)-2-(3-{[5-(2-Adamantan-1-yl-ethyl)-2-cyclohexyl-1H-imidazole-4-carbonyl]-amino}-benzoylamino)-propionic Acid] showed a Kb of 0.186 µM. `Cc1ccc(NC(=O)c2nc(C3CCCCCC3)[nH]c2COC23CC4CC(CC(C4)C2)C3)cc1C(=O)O` [Example 296, 5-{[5-(Adamantan-1-yloxymethyl)-2-cycloheptyl-1H-imidazole-4-carbonyl]-amino}-2-methyl-benzoic Acid] was tested, and the Kb was 0.00209 µM. Work on `O=C(Cc1cccc(NC(=O)c2nc(C3CCCCC3)[nH]c2COC23CC4CC(CC(C4)C2)C3)c1)NO` [Example 287, 5-(Adamantan-1-yloxymethyl)-2-cyclohexyl-1H-imidazole-4-carboxylic Acid (3-hydroxycarbamoylmethyl-phenyl)-amide] yielded a Kb of 0.0912 µM. For `Cc1ccccc1-c1nc(CCc2cccc(C(=O)O)c2)c(CCC23CC4CC(CC(C4)C2)C3)[nH]1` [Example 280, 3-{2-[5-(2-Adamantan-1-yl-ethyl)-2-o-tolyl-1H-imidazol-4-yl]-ethyl}-benzoic Acid], the Kb was 1.82 µM. For `O=C(O)CC(=O)Nc1cccc(NC(=O)c2nc(C3CCCCC3)[nH]c2CCC23CC4CC(CC(C4)C2)C3)c1` [Example 267, N-(3-{[5-(2-Adamantan-1-yl-ethyl)-2-cyclohexyl-1H-imidazole-4-carbonyl]-amino}-phenyl)-malonamic Acid], the Kb was 0.112 µM. Compound `Cc1cc(C)c(-c2nc(C(=O)Nc3cccc(CC(=O)O)c3)c(COC34CC5CC(CC(C5)C3)C4)[nH]2)c(C)c1` [Example 227, (3-{[5-(Adamantan-1-yloxymethyl)-2-(2,4,6-trimethyl-phenyl)-1H-imidazole-4-carbonyl]-amino}-phenyl)-acetic Acid] has a Kb of 0.0525 µM. `O=C(O)/C=C/c1cccc(NC(=O)c2nc(C3CCCCC3)[nH]c2CCC23CC4CC(CC(C4)C2)C3)c1` [Example 259, trans-3-(3-{[5-(2-Adamantan-1-yl-ethyl)-2-cyclohexyl-1H-imidazole-4-carbonyl]-amino}-phenyl)-acrylic Acid] was tested, and the Kb was 0.0708 µM.
